Results reported in ChEMBL document CHEMBL1201862, “PubChem BioAssay data set” (2004).
Calls of active or inactive are those of the source.

Experiments:
Cytochrome P450 2C19 = Cytochrome P450 2C19 (Homo sapiens, UniProt P33261); test: qHTS Assay for Inhibitors and Substrates of Cytochrome P450 2C19. [Related pubchem assays: 410 ]; format: ADME; details: read-out: Potency
Cytochrome P450 3A4 = Cytochrome P450 3A4 (Homo sapiens, UniProt P08684); details: Potency;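 also: confirmatory qHTS run detecting inhibitors and substrates of CYP3A4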
[1] = molecular target: Luciferin 4-monooxygenase (Photinus pyralis, UniProt P08659); test: inhibition of purified Photinus pyralis luciferase – biochemical, luminescence, dose response (AID 1891)
[2] = Luminescence Cell-Based Dose Confirmation HTS to Identify Inhibitors of Platelet Dense Granule Release. [Related pubchem assays: 1663 (Primary HTS), 1678 (Summary of Project)]; format: functional
[3] = Fluorescence Cell-Based Dose Response to Identify Inhibitors of Thrombin Receptor-Activating Peptide SFLLRN-Mediated P-Selectin Induction on Platelets. [Related pubchem assays: 1663 (Primary HTS), 1889 (retest at dose ), 1891 (counterscreen), 1678 (Project Summary)]; format: functional
[4] = molecular target: Mothers against decapentaplegic homolog 3 (Homo sapiens, UniProt P84022); test: inhibitors of SMAD-driven TGF-beta signaling – dose response (AID 715); format: functional
[5] = molecular target: Voltage-gated inwardly rectifying potassium channel KCNH2 (Homo sapiens, UniProt Q12809); test: concentration-dependent hERG rescue from blockers – cell-based, thallium flux, dose response (AID 2121); format: ADME
Estrogen receptor beta = Estrogen receptor beta (Homo sapiens, UniProt Q92731);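 also: recombinant ER-beta bound to coactivator SRC1 peptide in presence of estradiol agonist; inhibitors block coactivator peptide binding and lower the FRET signal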
[6] = molecular target: DNA dC->dU-editing enzyme APOBEC-3A (Homo sapiens, UniProt P31941); test: Dose Response confirmation of small molecule APOBEC3A DNA Deaminase Inhibitors via a fluorescence-based single-stranded DNA deaminase assay. [Related pubchem assays (depositor defined):AID493011, AID493024]; format: functional
[7] = molecular target: DNA dC->dU-editing enzyme APOBEC-3G (Homo sapiens, UniProt Q9HC16); format: functional;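 also: Dose-response counterscreen measuring inhibition of APOBEC3G DNA deaminase activity, run while confirming APOBEC3A inhibitors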
[8] = molecular target: T1, Carboxy-terminal domain RNA polymerase II polypeptide A small phosphatase 1 (Homo sapiens, UniProt Q9GZU7); test: CTDSP1 inhibitors, concentration-response, biochemical, absorbance readout, ultra-high-throughput screen actives (AID 540297); format: functional
T1 sequence (Q9GZU7 whole entry): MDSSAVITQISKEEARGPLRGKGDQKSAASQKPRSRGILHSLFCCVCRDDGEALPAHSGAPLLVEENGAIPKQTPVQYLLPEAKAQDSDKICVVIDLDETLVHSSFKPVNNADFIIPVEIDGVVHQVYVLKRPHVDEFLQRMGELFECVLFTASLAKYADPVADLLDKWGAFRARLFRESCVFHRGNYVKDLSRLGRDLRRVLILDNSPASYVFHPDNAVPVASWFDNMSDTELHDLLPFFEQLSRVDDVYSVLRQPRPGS

[9] = microbe, parasite or virus in culture; format: functional; details: Mycobacterium tuberculosis
[10] = viability of PTEN-deleted HCT116 cells – cell-based, HCT116 PTEN knockout, dose response (AID 1047); format: functional;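 also: HCT116 colon tumor cells with PTEN knocked out; cells exposed to compound for 60 hours before readout; potency for loss of cell viability measured by luminescence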
[11] = viability of HCT116 lacking mutant beta-catenin – cell-based, human colon tumor, dose response (AID 1045); format: functional;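 also: HCT116 colon tumor cells with beta catenin knocked out; cells exposed to compound for 60 hours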
Ephrin type-A receptor 4 = Ephrin type-A receptor 4 (Mus musculus, UniProt Q03137); test: EphA4 ligand-binding antagonists – biochemical, colorimetric, mouse EphA4, primary screen (AID 689); format: functional
[12] = molecular target: Heat shock protein HSP 90-alpha (Homo sapiens, UniProt P07900); format: functional, organism-based
Cytochrome P450 2D6 = Cytochrome P450 2D6 (Homo sapiens, UniProt P10635);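 also: CYP2D6 member of a cytochrome P450 panel assay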
HEK293 [13] = test: inhibition of NOD1-driven NF-kB reporter – cell-based, luminescence, uHTS, primary screen (AID 1578); format: functional; details: Homo sapiens
[14] = molecular target: E3 ubiquitin-protein ligase Mdm2 (Homo sapiens, UniProt Q00987); test: MDM2-luc reporter signal enhancers, multi-concentration potency testing, MDM2 ubiquitin-protein ligase inhibitor program, whole-cell format, luminescence detection, 384-well microplate (AID 1394); format: functional;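 also: MDM2 E3 inhibitors raise luminescence so EC50 is for signal enhancement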
BJ [15] = test: BJ-TERT fibroblast viability loss – cell-based, RAS-independent, luminescence, dose response (AID 1933); format: functional; details: Homo sapiens
HEK293 [16] = test: cells; format: functional, cell-based; details: Homo sapiens
BJ [17] = test: cells; format: functional, cell-based; details: Homo sapiens
HEK293 [18] = test: cells; format: functional, cell-based; details: Homo sapiens; remark: listed apart in the source
[19] = molecular target: Nucleotide-binding oligomerization domain-containing protein 2 (Homo sapiens, UniProt Q9HC29); test: inhibition of NOD2-driven NF-kB reporter – cell-based, luminescence, uHTS, HEK293 (AID 1566); format: functional
HEK293 [20] = test: NOD2 signaling inhibitors in MDP-stimulated cells, cell-based, uHTS, luminescence (AID 2001); format: functional; details: Homo sapiens
HEK293 [21] = test: cells; format: functional, cell-based; details: Homo sapiens; remark: listed apart in the source
BJ [22] = test: BJ-TERT-LT-ST fibroblast viability loss – cell-based, RAS-independent, luminescence, dose response (AID 1935); format: functional; details: Homo sapiens;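 also: BJ fibroblasts immortalized with TERT plus LT and ST oncogenes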
[23] = DRD fibroblast viability loss – cell-based, non-viral oncogenic, luminescence, dose response (AID 1934); format: functional; details: Homo sapiens
[24] = molecular target: Beta-2 adrenergic receptor (Homo sapiens, UniProt P07550); test: ADRB2 activation measured by internalization – cell-based, FAP fluorogen, flow cytometry, cherry pick 1, dose response (AID 588763); format: functional
Melanocortin receptor 4 = Melanocortin receptor 4 (Homo sapiens, UniProt P32245); test: inhibitors of MC4R cAMP signaling – cell-based, TR-FRET, biased antagonists, dose response (AID 602298); format: functional;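 also: antagonist potency against agonist-stimulated cAMP production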
[25] = cAMP pathway inhibition in counterscreen cell line – TR-FRET cAMP detection, counter-screen for MC4R biased antagonist project, dose response (AID 602305); format: functional, cell-based;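 also: U2OS cells stimulated with forskolin near its EC80 as the cAMP inducer; potency is for inhibition of forskolin-stimulated cAMP signaling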
[26] = molecular target: Neuropeptide Y receptor type 1 (Homo sapiens, UniProt P25929); format: functional;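 also: HEK293 cells with a CNG channel challenged with NPY then isoproterenol; potency as antagonist that reverses NPY suppression of cAMP signal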
[27] = molecular target: Neuropeptide Y receptor type 2 (Homo sapiens, UniProt P49146); format: functional, cell-based;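 also: HEK293 cells expressing the receptor and a CNG channel; stimulus was NPY near EC95 followed by isoproterenol to raise cAMP; antagonist potency measured as restoring cAMP signal that NPY suppresses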
Chain of Neuropeptide Y receptor type 2 (P49146 whole entry): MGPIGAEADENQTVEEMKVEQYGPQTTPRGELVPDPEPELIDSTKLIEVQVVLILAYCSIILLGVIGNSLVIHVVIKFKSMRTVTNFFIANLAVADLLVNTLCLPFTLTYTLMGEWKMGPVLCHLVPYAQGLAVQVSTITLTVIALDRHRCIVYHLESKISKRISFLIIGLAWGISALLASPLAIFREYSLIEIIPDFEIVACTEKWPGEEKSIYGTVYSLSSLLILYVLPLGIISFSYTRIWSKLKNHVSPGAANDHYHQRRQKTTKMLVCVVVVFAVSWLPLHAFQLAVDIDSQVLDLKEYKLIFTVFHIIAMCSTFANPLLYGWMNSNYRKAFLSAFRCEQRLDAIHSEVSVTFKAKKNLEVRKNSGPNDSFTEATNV

Chain of Luciferin 4-monooxygenase (P08659 whole entry): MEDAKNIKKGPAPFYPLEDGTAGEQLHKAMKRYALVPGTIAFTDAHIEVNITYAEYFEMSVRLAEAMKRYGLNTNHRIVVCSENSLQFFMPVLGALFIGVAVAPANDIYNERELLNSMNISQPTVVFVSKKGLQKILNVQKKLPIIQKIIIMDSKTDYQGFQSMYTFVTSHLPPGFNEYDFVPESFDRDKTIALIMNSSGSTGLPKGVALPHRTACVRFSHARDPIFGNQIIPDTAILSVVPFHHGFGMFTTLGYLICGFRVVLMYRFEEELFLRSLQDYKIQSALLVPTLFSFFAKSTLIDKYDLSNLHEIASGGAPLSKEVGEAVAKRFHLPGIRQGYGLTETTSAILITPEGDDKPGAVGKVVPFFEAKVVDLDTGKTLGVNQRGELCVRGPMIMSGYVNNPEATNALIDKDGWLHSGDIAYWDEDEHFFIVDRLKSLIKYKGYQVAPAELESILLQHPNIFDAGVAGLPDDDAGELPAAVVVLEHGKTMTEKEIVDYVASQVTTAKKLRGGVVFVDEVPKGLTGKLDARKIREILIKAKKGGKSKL
Chain of Ephrin type-A receptor 4 (Q03137 whole entry): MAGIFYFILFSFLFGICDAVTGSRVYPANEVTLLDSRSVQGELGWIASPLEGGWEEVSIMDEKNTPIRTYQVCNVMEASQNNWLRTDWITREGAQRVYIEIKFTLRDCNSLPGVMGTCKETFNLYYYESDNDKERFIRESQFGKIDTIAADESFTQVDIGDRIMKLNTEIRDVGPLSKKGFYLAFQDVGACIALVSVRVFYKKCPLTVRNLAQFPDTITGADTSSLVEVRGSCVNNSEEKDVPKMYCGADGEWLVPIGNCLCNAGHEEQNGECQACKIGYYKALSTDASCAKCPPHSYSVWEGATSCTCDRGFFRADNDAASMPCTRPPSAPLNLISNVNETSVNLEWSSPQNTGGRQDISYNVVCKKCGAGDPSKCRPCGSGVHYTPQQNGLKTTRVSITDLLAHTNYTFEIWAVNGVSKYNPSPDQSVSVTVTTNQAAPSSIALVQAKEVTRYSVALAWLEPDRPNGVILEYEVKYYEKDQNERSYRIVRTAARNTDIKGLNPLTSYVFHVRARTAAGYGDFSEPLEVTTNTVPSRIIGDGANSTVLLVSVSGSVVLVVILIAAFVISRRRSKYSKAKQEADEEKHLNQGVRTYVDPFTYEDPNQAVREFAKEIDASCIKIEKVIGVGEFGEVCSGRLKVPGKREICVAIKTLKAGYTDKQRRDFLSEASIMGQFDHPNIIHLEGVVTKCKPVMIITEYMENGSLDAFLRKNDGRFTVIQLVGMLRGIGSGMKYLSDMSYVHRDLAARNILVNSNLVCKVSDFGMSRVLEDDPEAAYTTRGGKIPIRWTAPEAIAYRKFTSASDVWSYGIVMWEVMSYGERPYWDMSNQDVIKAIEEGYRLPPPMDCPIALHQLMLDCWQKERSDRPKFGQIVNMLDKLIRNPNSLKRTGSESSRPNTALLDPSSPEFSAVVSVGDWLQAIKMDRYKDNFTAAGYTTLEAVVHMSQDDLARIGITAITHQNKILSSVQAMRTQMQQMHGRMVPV
Chain of Melanocortin receptor 4 (P32245 whole entry): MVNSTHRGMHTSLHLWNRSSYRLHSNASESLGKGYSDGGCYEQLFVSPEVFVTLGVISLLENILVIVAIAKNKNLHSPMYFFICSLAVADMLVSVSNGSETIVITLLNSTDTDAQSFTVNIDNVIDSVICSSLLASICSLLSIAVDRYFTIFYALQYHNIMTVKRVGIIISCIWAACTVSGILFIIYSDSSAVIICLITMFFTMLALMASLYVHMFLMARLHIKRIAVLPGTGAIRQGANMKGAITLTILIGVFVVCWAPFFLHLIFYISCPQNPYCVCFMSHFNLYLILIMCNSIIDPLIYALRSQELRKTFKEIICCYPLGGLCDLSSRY
Chain of Beta-2 adrenergic receptor (P07550 whole entry): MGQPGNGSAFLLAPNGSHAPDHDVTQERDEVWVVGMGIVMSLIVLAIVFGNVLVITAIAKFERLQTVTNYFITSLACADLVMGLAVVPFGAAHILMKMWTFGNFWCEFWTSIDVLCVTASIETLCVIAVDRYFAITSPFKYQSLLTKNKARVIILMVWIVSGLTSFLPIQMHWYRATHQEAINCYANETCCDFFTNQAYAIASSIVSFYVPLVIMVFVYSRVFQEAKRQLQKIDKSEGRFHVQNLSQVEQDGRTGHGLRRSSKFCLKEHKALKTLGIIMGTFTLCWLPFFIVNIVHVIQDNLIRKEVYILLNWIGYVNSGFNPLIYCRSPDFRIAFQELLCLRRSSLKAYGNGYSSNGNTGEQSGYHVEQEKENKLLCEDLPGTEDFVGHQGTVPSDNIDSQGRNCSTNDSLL
Chain of Cytochrome P450 3A4 (P08684 whole entry): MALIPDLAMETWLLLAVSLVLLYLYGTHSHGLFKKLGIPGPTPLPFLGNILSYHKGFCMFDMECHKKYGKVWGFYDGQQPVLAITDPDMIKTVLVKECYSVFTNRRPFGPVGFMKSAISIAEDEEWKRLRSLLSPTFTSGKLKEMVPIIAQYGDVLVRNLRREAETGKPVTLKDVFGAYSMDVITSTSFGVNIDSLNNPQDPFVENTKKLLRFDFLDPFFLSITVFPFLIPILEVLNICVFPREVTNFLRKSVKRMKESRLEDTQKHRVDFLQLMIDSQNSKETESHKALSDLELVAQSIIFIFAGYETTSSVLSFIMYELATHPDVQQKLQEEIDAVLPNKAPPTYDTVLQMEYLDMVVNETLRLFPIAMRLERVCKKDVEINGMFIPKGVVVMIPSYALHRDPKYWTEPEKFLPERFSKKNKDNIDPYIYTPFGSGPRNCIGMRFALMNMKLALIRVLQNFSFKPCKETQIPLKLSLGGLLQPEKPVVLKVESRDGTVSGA
Chain of Mothers against decapentaplegic homolog 3 (P84022 whole entry): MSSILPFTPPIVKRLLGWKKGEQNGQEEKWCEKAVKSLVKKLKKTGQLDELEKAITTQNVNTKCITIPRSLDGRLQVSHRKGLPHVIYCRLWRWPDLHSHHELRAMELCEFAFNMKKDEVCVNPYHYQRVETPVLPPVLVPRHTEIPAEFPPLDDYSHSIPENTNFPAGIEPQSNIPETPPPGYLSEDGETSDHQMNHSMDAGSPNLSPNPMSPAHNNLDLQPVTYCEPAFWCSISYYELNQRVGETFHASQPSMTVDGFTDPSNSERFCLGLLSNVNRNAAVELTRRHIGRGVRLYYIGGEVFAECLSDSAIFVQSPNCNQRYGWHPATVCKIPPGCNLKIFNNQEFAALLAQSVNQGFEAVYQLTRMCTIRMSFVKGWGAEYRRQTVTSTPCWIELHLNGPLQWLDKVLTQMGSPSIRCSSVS
Chain of Voltage-gated inwardly rectifying potassium channel KCNH2 (Q12809 whole entry): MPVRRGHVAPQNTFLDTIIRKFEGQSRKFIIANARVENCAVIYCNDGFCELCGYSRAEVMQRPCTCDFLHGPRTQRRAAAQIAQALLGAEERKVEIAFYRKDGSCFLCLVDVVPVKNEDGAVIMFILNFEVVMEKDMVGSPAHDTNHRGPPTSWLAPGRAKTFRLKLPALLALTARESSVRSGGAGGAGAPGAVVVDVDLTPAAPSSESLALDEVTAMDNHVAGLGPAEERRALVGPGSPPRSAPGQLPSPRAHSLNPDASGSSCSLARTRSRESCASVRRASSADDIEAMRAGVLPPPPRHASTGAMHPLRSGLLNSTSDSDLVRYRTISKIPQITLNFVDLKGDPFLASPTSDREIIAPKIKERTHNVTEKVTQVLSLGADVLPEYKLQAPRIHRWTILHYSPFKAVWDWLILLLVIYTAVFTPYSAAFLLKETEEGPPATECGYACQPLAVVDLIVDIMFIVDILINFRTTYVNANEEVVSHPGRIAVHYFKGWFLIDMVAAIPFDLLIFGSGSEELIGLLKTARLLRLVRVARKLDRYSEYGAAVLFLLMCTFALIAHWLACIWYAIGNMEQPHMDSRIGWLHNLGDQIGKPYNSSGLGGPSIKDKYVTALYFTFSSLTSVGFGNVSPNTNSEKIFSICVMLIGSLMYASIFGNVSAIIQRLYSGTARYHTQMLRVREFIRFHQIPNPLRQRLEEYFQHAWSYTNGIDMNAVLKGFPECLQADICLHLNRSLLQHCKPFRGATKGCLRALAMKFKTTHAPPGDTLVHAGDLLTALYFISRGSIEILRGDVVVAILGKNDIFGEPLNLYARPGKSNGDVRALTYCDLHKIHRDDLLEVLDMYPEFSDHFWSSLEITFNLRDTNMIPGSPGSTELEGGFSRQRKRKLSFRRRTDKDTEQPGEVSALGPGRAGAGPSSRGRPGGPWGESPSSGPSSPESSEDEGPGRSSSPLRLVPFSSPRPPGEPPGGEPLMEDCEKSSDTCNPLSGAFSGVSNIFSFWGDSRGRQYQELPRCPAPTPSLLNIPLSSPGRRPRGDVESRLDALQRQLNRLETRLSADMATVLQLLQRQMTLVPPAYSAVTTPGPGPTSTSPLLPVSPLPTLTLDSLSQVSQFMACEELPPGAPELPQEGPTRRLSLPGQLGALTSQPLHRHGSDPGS
Chain of DNA dC->dU-editing enzyme APOBEC-3A (P31941 whole entry): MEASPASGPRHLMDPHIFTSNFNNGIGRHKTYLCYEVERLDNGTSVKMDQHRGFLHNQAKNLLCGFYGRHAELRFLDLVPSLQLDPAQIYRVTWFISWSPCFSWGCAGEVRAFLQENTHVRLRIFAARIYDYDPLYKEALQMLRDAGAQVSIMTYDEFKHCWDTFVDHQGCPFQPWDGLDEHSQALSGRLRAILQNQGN

Q: With `CC1CCC2C(=O)N3C(CCC(C)[C@@H]3c3ccc(Br)cc3)C(=O)N2C1c1ccc(Br)cc1` (stereo not given in full) as the compound, how does the AC50 (Cytochrome P450 2C19) read?
A: The AC50 was 3.98 µM (inconclusive).

Q: And the AC50 (Cytochrome P450 3A4)?
A: Its AC50 is 5.01 µM (inconclusive).

Q: What does the source list for `CCS(=O)(=O)Nc1ccc(-c2nnc(SCC(=O)OC)o2)cc1`?
A: EC50 [1]: > 112 µM (not active); EC50 [2]: 6.33 µM (active); EC50 [3]: < 30 µM (active)

Q: Which IC50 [4] does the source give for `Oc1ccccc1-c1nc(N2CCCC2)c2ccccc2n1` here?
A: The IC50 was 14.6 µM (active).

Q: For `O=C(NC(=S)Nc1ncc(Br)cc1Br)c1ccccc1`, which EC50 [5] is on record?
A: Its EC50 is 1.46 µM (active).

Q: With `CCCCCCNC(=O)c1cc(-c2ccco2)nc2ccccc12` as the compound, how does the IC50 (Estrogen receptor beta) read?
A: Its IC50 is 2.6 µM (active).

Q: And the IC50 [6]?
A: The IC50 was 13.6 µM (active).

Q: What about the IC50 [7] of the same compound?
A: Its IC50 is 16 µM (active).

Q: And the IC50 [8]?
A: Its IC50 is 5.1 µM (active).

Q: For `O=[N+]([O-])/C=C/c1cn(Cc2ccccc2)c2ccccc12`, which CC50 [9] is on record?
A: The CC50 was > 40 µM (active).

Q: And the EC50 [10]?
A: Its EC50 is 15.8 µM (active).

Q: And the EC50 [11]?
A: Its EC50 is 13.2 µM (active).

Q: What about the IC50 (Ephrin type-A receptor 4) of the same compound?
A: The IC50 was 2.3 µM (active).

Q: What about the AC50 [12] of the same compound?
A: The AC50 was 6.43 µM (active).

Q: What about the AC50 (Cytochrome P450 2D6) of the same compound?
A: Its AC50 is 15.8 µM (inconclusive).

Q: Which EC50 (HEK293 [13]) does the source give for `O=C(COC(=O)c1ccccc1C(=O)c1ccc(Cl)c([N+](=O)[O-])c1)NC1CCCCCC1` here?
A: The EC50 was 3.78 µM (active).

Q: And the EC50 [14]?
A: The EC50 was 12.4 µM (not active).

Q: What about the EC50 (BJ [15]) of the same compound?
A: Its EC50 is 4.41 µM (active).

Q: And the IC50 (HEK293 [16])?
A: The IC50 was 1.9 µM (active).

Q: And the EC50 (BJ [17])?
A: The EC50 was 9.86 µM (inconclusive).

Q: What about the IC50 (HEK293 [18]) of the same compound?
A: The IC50 was 18.3 µM (active).

Q: And the EC50 [19]?
A: Its EC50 is > 20 µM (inactive).

Q: And the IC50 (HEK293 [20])?
A: The IC50 was 3.13 µM (active).

Q: What about the IC50 (HEK293 [21]) of the same compound?
A: Its IC50 is > 20 µM (inactive).

Q: And the EC50 (BJ [22])?
A: Its EC50 is 4.91 µM (inconclusive).

Q: What about the EC50 [23] of the same compound?
A: Its EC50 is 4.47 µM (active).

Q: What about the EC50 [24] of the same compound?
A: The EC50 was 42.3 µM (inactive).

Q: What about the IC50 (Melanocortin receptor 4) of the same compound?
A: The IC50 was 26.6 µM (inactive).

Q: What about the IC50 [25] of the same compound?
A: Its IC50 is > 64.6 µM (inactive).

Q: For `O=C(Nc1ccccc1)OCc1cc(-c2ccccc2Cl)on1`, which IC50 [26] is on record?
A: The IC50 was 9 µM (active).

Q: And the EC50 [1]?
A: The EC50 was > 112 µM (not active).

Q: What about the EC50 [2] of the same compound?
A: The EC50 was > 112 µM (not active).

Q: And the IC50 [27]?
A: Its IC50 is 14.7 µM (not active).
